The text below walks through data of PMC12754783 (2025).

Bounds are passed on as bounds.

Test [1] has as its system 1XAV (DNA, G4) TGAGGGTGGGTAGGGTGGGTAA
Nature of the test: native ESI-MS titration. Conditions: 0.5 mM K+; 100 mM TMAA pH 6.8, 10 µM DNA; stepwise KD1.

For test [2], the system named is 5YEY (DNA, G4) GGGTTAGGGTTAGGGTTTGGG
As to the kind of experiment: native ESI-MS titration. Conditions: 0.5 mM K+, 100 mM TMAA pH 6.8, 10 µM DNA.

In test [3] the test system is 222T_mA (DNA, G4) TGGGTTGGGAAGGGTTGGGT
As to the kind of experiment: native ESI-MS screening (single concentration). Conditions: 0.5 mM K+, 100 mM TMAA pH 6.8, 10 µM DNA, 20 µM ligand.

For test [4], the system named is 21G (DNA, G4) GGGTTAGGGTTAGGGTTAGGG
Nature of the test: native ESI-MS titration. Conditions: 0.5 mM K+; 100 mM TMAA pH 6.8, 10 µM DNA; KD1 differs 20-fold from 5YEY.

Test [5] relates to 222T (DNA, G4) TGGGTTGGGTTGGGTTGGGT
Nature of the test: native ESI-MS screening (single concentration). The following applies: 0.5 mM K+, 100 mM TMAA pH 6.8, 10 µM DNA, 20 µM ligand.

Test [6] deals with 22GT_18T (DNA, G4) GGGTTAGGGTTAGGGTTTGGGT
Nature of the test: native ESI-MS screening (single concentration). Conditions: 0.5 mM K+; 100 mM TMAA pH 6.8, 10 µM DNA, 20 µM ligand; stepwise KD1.

The subject of test [7] is T30177TT (DNA, G4) TTGTGGTGGGTGGGTGGGT
Nature of the test: UV melting 295 nm. The following applies: 0.5 mM K+; 100 mM TMAA pH 6.8; 10 µM DNA, 20 µM QQPQ; two transitions.

The test system of test [8] is T24 (DNA, single strand) TTTTTTTTTTTTTTTTTTTTTTTT
As to the kind of experiment: native ESI-MS titration. The following applies: 0.5 mM K+; 100 mM TMAA pH 6.8, 10 µM DNA, up to 40 µM ligand.

Test [9] deals with 1XAV (DNA, G4) TGAGGGTGGGTAGGGTGGGTAA
Nature of the test: native ESI-MS screening (single concentration). Conditions: 0.5 mM K+, 100 mM TMAA pH 6.8, 10 µM DNA, 20 µM ligand.

Test [10] has as its system 222T (DNA, G4) TGGGTTGGGTTGGGTTGGGT
As to the kind of experiment: UV melting 295 nm. Conditions: 0.5 mM K+; 100 mM TMAA pH 6.8; 10 µM DNA, 20 µM QQPQ; two transitions.

For test [11], the system named is 26TTA (DNA, G4) TTAGGGTTAGGGTTAGGGTTAGGGTT
As to the kind of experiment: native ESI-MS screening (single concentration). Conditions: 0.5 mM K+; 100 mM TMAA pH 6.8, 10 µM DNA, 20 µM ligand; stepwise KD1.

Test [12] deals with TG4T (DNA, G4) TGGGGT. As to the kind of experiment: native ESI-MS screening (single concentration). The following applies: K+ 0.5 mM (KCl) with 100 mM TMAA, or NH4+ 150 mM; source does not say which; pH 6.8, 10 µM DNA, 20 µM ligand; stepwise KD1.
Test [13] relates to 5YEY (DNA, G4) GGGTTAGGGTTAGGGTTTGGG
Nature of the test: UV melting 295 nm. Conditions: 0.5 mM K+; 100 mM TMAA pH 6.8; 10 µM DNA, 20 µM QQPQ.

Test [14] shares this test system. Nature of the test: native ESI-MS screening (single concentration). The following applies: 0.5 mM K+; 100 mM TMAA pH 6.8, 10 µM DNA, 20 µM ligand; stepwise KD1 (KD2 40).
Setting [15] is: stepwise KD1, exact value in Table S3.

The molecule `CC(=O)Nc1cccc2c(OCCCN)cc(C(=O)Nc3cccc4c(OCCCN)cc(C(=O)Nc5cccc6c(OCCCN)cc(C(=O)Nc7cccc8c(OCCCN)cc(C(=O)Nc9cccc%10c(OCCCN)cc(C(=O)Nc%11cccc%12c(OCCCN)cc(C(=O)Nc%13cccc%14c(OCCCN)cc(C(=O)Nc%15cccc%16c(OCCCN)cc(C(=O)O)nc%15%16)nc%13%14)nc%11%12)nc9%10)nc78)nc56)nc34)nc12` came in with a KD1 in test [1] of 28 ± 6.7 µM.
In turn, `CC(=O)Nc1cccc2c(OCCCN)cc(C(=O)Nc3cccc4c(OCCCN)cc(C(=O)Nc5cccc6c(OCCCN)cc(C(=O)Nc7cccc8c(OCCCN)cc(C(=O)Nc9cccc%10c(OCCCN)cc(C(=O)O)nc9%10)nc78)nc56)nc34)nc12` registered a KD1 in [2] (setting [15]) of less than 10 µM.
`CC(=O)Nc1cccc2c(OCCCN)cc(C(=O)Nc3cccc4c(OCCCN)cc(C(=O)Nc5cccc6c(OCCCN)cc(C(=O)Nc7cccc8c(OCCCN)cc(C(=O)O)nc78)nc56)nc34)nc12`: the KD1 in [2] (setting [15]) is less than 10 µM; in test [1] it was 0.075 ± 0.059 µM; in test [3] (stepwise KD1 (KD2 4.5)) it was 12 µM; in test [4] it was 330 ± 23 µM; in test [5] (stepwise KD1 (KD2 2.0)) it was 1.1 µM.
As a reminder, the ΔTm is the shift of the melting midpoint relative to a reference. What is called KD is the free concentration of one partner at which half of the binding sites on the other are occupied at equilibrium, for simple one-to-one binding. High values mean lower affinity, low ones higher affinity. Take `CC(=O)Nc1cccc2c(OCCCN)cc(C(=O)Nc3cccc4c(OCCCN)cc(C(=O)NCc5cccc(C(=O)Nc6cccc7c(OCCCN)cc(C(=O)O)nc67)n5)nc34)nc12`: the KD1 is listed as 0.54 ± 0.1 µM in test [2] (stepwise KD1 (KD2 200 ± 70), screening gave 1.5); ~ 5 µM in test [6]; 0.5 µM in test [9] (stepwise KD1 (KD2 1.5)); ~ 5 µM in test [11]; ~ 5 µM in test [12]; 2.2 µM in test [3] (stepwise KD1 (KD2 1.0)). In [5] (stepwise KD1 (KD2 2.1)), this molecule gave a KD1 of 0.5 µM. The ΔTm is 17 °C in test [7], “~ +26 °C” in [10] and “+8.2 °C” in test [13]. The same molecule registered a KD in [8] greater than 100 µM.
Turning to `CC(=O)Nc1cccc2c(OCCCN)cc(C(=O)NCc3cccc(C(=O)NCc4cccc(C(=O)Nc5cccc6c(OCCCN)cc(C(=O)O)nc56)n4)n3)nc12`, the KD1 worked out at 75 µM in test [14], 5.2 µM in [9] (stepwise KD1 (KD2 7.4)), 8.9 µM in [3] (stepwise KD1 (KD2 3.4)) and 2.3 µM in test [5] (stepwise KD1 (KD2 5.4)). This molecule displayed a KD in test [8] greater than 100 µM.
For `CC(=O)Nc1cccc2c(OCCCN)cc(C(=O)NCc3cccc(C(=O)Nc4cccc5c(OCCCN)cc(C(=O)O)nc45)n3)nc12`, the dissociation constant KD in [8] is recorded as greater than 100 µM. Moreover, the KD1 in [9] (stepwise KD1 (KD2 27)) amounted to 15 µM; in [3] (stepwise KD1 (KD2 14)) it was 25 µM; in test [5] (stepwise KD1 (KD2 22)), 4.8 µM.
